Measurements from ChEMBL document CHEMBL1147144, “Novel styrylpyridines as probes for SPECT imaging of amyloid plaques” (J Med Chem, 2007).

Tests used:
Heart [1] = assay: Biodistribution in ICR mouse heart at 5 to 10 uCi, iv after 2 hrs; type: ADME, organism-based; conditions: in vivo
Brain [2] = assay: Biodistribution in ICR mouse brain at 5 to 10 uCi, iv after 30 mins; type: ADME, organism-based; conditions: in vivo, 0.5 h
Liver [3] = assay: Biodistribution in ICR mouse liver at 5 to 10 uCi, iv after 1 hr; type: ADME, organism-based; conditions: in vivo
Heart [4] = assay: Biodistribution in ICR mouse heart at 5 to 10 uCi, iv after 1 hr; type: ADME, organism-based; conditions: in vivo
Spleen [5] = assay: Biodistribution in ICR mouse spleen at 5 to 10 uCi, iv after 30 mins; type: ADME, organism-based; conditions: in vivo, 0.5 h
Liver [6] = assay: Biodistribution in ICR mouse liver at 5 to 10 uCi, iv after 2 mins; type: ADME, organism-based; conditions: in vivo
Zone of skin [7] = assay: Biodistribution in ICR mouse skin at 5 to 10 uCi, iv after 2 mins; type: ADME, organism-based; conditions: in vivo
Muscle tissue [8] = assay: Biodistribution in ICR mouse muscle at 5 to 10 uCi, iv after 2 mins; type: ADME, organism-based; conditions: in vivo
Muscle tissue [9] = assay: Biodistribution in ICR mouse muscle at 5 to 10 uCi, iv after 30 mins; type: ADME, organism-based; conditions: in vivo, 0.5 h
Kidney [10] = assay: Biodistribution in ICR mouse kidney at 5 to 10 uCi, iv after 2 hrs; type: ADME, organism-based; conditions: in vivo
Kidney [11] = assay: Biodistribution in ICR mouse kidney at 5 to 10 uCi, iv after 2 mins; type: ADME, organism-based; conditions: in vivo
Lung [12] = assay: Biodistribution in ICR mouse lung at 5 to 10 uCi, iv after 30 mins; type: ADME, organism-based; conditions: in vivo, 0.5 h
Zone of skin [13] = assay: Biodistribution in ICR mouse skin at 5 to 10 uCi, iv after 30 mins; type: ADME, organism-based; conditions: in vivo, 0.5 h
Heart [14] = assay: Biodistribution in ICR mouse heart at 5 to 10 uCi, iv after 2 mins; type: ADME, organism-based; conditions: in vivo
Spleen [15] = assay: Biodistribution in ICR mouse spleen at 5 to 10 uCi, iv after 2 hrs; type: ADME, organism-based; conditions: in vivo
Blood [16] = assay: Biodistribution in ICR mouse blood at 5 to 10 uCi, iv after 30 mins; type: ADME, organism-based; conditions: in vivo, 0.5 h
Muscle tissue [17] = assay: Biodistribution in ICR mouse muscle at 5 to 10 uCi, iv after 1 hr; type: ADME, organism-based; conditions: in vivo
Blood [18] = assay: Biodistribution in ICR mouse blood at 5 to 10 uCi, iv after 1 hr; type: ADME, organism-based; conditions: in vivo
Liver [19] = assay: Biodistribution in ICR mouse liver at 5 to 10 uCi, iv after 30 mins; type: ADME, organism-based; conditions: in vivo, 0.5 h
Thyroid gland [20] = assay: Biodistribution in ICR mouse thyroid at 5 to 10 uCi, iv after 1 hr; type: ADME, organism-based; conditions: in vivo
Muscle tissue [21] = assay: Biodistribution in ICR mouse muscle at 5 to 10 uCi, iv after 2 hrs; type: ADME, organism-based; conditions: in vivo
Lung [22] = assay: Biodistribution in ICR mouse lung at 5 to 10 uCi, iv after 2 hrs; type: ADME, organism-based; conditions: in vivo
[23] = Partition coefficient, log P at pH 7.4; type: physicochemical; conditions: octanol/water
Brain [24] = assay: Biodistribution in ICR mouse brain at 5 to 10 uCi, iv after 1 hr; type: ADME, organism-based; conditions: in vivo
Kidney [25] = assay: Biodistribution in ICR mouse kidney at 5 to 10 uCi, iv after 1 hr; type: ADME, organism-based; conditions: in vivo
Zone of skin [26] = assay: Biodistribution in ICR mouse skin at 5 to 10 uCi, iv after 1 hr; type: ADME, organism-based; conditions: in vivo
Thyroid gland [27] = assay: Biodistribution in ICR mouse thyroid at 5 to 10 uCi, iv after 30 mins; type: ADME, organism-based; conditions: in vivo, 0.5 h
Heart [28] = assay: Biodistribution in ICR mouse heart at 5 to 10 uCi, iv after 30 mins; type: ADME, organism-based; conditions: in vivo, 0.5 h
Thyroid gland [29] = assay: Biodistribution in ICR mouse thyroid at 5 to 10 uCi, iv after 2 mins; type: ADME, organism-based; conditions: in vivo
Brain [30] = assay: Biodistribution in ICR mouse brain at 5 to 10 uCi, iv after 2 hrs; type: ADME, organism-based; conditions: in vivo
Thyroid gland [31] = assay: Biodistribution in ICR mouse thyroid at 5 to 10 uCi, iv after 2 hrs; type: ADME, organism-based; conditions: in vivo
Brain [32] = assay: Biodistribution in ICR mouse brain at 5 to 10 uCi, iv after 2 mins; type: ADME, organism-based; conditions: in vivo
Liver [33] = assay: Biodistribution in ICR mouse liver at 5 to 10 uCi, iv after 2 hrs; type: ADME, organism-based; conditions: in vivo
Lung [34] = assay: Biodistribution in ICR mouse lung at 5 to 10 uCi, iv after 2 mins; type: ADME, organism-based; conditions: in vivo
Spleen [35] = assay: Biodistribution in ICR mouse spleen at 5 to 10 uCi, iv after 2 mins; type: ADME, organism-based; conditions: in vivo
Lung [36] = assay: Biodistribution in ICR mouse lung at 5 to 10 uCi, iv after 1 hr; type: ADME, organism-based; conditions: in vivo
Spleen [37] = assay: Biodistribution in ICR mouse spleen at 5 to 10 uCi, iv after 1 hr; type: ADME, organism-based; conditions: in vivo
Brain [38] = assay: Ratio of drug distribution in brain after 2 mins to 30 mins in ICR mouse at 5 to 10 uCi, iv; type: ADME, organism-based; conditions: in vivo
Blood [39] = assay: Biodistribution in ICR mouse blood at 5 to 10 uCi, iv after 2 mins; type: ADME, organism-based; conditions: in vivo
Zone of skin [40] = assay: Biodistribution in ICR mouse skin at 5 to 10 uCi, iv after 2 hrs; type: ADME, organism-based; conditions: in vivo
Kidney [41] = assay: Biodistribution in ICR mouse kidney at 5 to 10 uCi, iv after 30 mins; type: ADME, organism-based; conditions: in vivo, 0.5 h
Blood [42] = assay: Biodistribution in ICR mouse blood at 5 to 10 uCi, iv after 2 hrs; type: ADME, organism-based; conditions: in vivo

CNc1ccc(/C=C/c2cnc(OCCOCCOCCF)c([125I])c2)cc1
Drug uptake (Heart [1]): 1.22 % ID/g
Drug uptake (Brain [2]): 1.23 % ID/g
Drug uptake (Liver [3]): 7.7 % ID/g
Drug uptake (Heart [4]): 1.75 % ID/g
Drug uptake (Spleen [5]): 2.49 % ID/g
Drug uptake (Liver [6]): 26.2 % ID/g
Drug uptake (Zone of skin [7]): 1.48 % ID/g
Drug uptake (Muscle tissue [8]): 1.04 % ID/g
Drug uptake (Muscle tissue [9]): 1.11 % ID/g
Drug uptake (Kidney [10]): 1.86 % ID/g
Drug uptake (Kidney [11]): 9.03 % ID/g
Drug uptake (Lung [12]): 3.01 % ID/g
Drug uptake (Zone of skin [13]): 2.95 % ID/g
Drug uptake (Heart [14]): 9.85 % ID/g
Drug uptake (Spleen [15]): 1.27 % ID/g
Drug uptake (Blood [16]): 3.83 % ID/g
Drug uptake (Muscle tissue [17]): 0.85 % ID/g
Drug uptake (Blood [18]): 2.88 % ID/g
Drug uptake (Liver [19]): 11.5 % ID/g
Drug uptake (Thyroid gland [20]): 38.1 % ID/g
Drug uptake (Muscle tissue [21]): 0.44 % ID/g
Drug uptake (Lung [22]): 1.85 % ID/g
logD [23]: 2.2
Drug uptake (Brain [24]): 0.62 % ID/g
Drug uptake (Kidney [25]): 2.81 % ID/g
Drug uptake (Zone of skin [26]): 2.46 % ID/g
Drug uptake (Thyroid gland [27]): 24.1 % ID/g
Drug uptake (Heart [28]): 2.54 % ID/g
Drug uptake (Thyroid gland [29]): 5.74 % ID/g
Drug uptake (Brain [30]): 0.26 % ID/g
Drug uptake (Thyroid gland [31]): 215 % ID/g
Drug uptake (Brain [32]): 6.22 % ID/g
Drug uptake (Liver [33]): 6.25 % ID/g
Drug uptake (Lung [34]): 6.85 % ID/g
Drug uptake (Spleen [35]): 4.41 % ID/g
Drug uptake (Lung [36]): 2.37 % ID/g
Drug uptake (Spleen [37]): 1.75 % ID/g
Ratio (Brain [38]): 5.05
Drug uptake (Blood [39]): 4.37 % ID/g
Drug uptake (Zone of skin [40]): 1.32 % ID/g
Drug uptake (Kidney [41]): 3.4 % ID/g
Drug uptake (Blood [42]): 2.21 % ID/g
